# Measurements reported in US10028960B2, “Pyrimidine compounds as JAK kinase inhibitors” (THERAVANCE BIOPHARMA R&D IP, LLC, priority 2016, dated 2018).
# Read-outs that look alike come from different tables or passages of the source.
# What was measured:
# [1] = test system: IL-13 induced STAT6 phosphorylation in HT-29 human colorectal adenocarcinoma cells; experiment: Cellular JAK potency assay: inhibition of IL-13 induced STAT6 phosphorylation; assay type: cell-based; details: Homo sapiens
# [2] = test system: IFNγ stimulated STAT1 phosphorylation in CD14+ monocytes; experiment: Cellular JAK potency assay: inhibition of IFNγ-induced pSTAT1; assay type: cell-based; details: Homo sapiens, Monocyte
# Method: The potency of test compounds for inhibition of interferon gamma (IFNγ) stimulated STAT1 phosphorylation was measured in CD14-positive (CD14+) monocytes derived from human whole blood (Stanford Blood Center) using flow cytometry. Because IFNγ signals through JAK, this assay provides a measure of JAK cellular potency.
# Monocytes were identified using a fluorescein isothiocyanate (FITC) conjugated anti-CD14 antibody (Clone RM052, Beckman Coulter), and an Alexa Fluor 647 conjugated anti-pSTAT1 antibody (pY701, Clone 4a, BD Biosciences) was used to detect STAT1 phosphorylation.
# Human peripheral blood mononuclear cells (PBMC) were isolated from human whole blood of healthy donors using a ficoll gradient. […] Cells were washed twice with FACS buffer, and then resuspended in 1:10 anti-pSTAT1 Alexa Fluor 647:FACS buffer (100 μL) for 30 min at RT in the dark, washed twice in FACS buffer, and analyzed using a LSRII flow cytometer (BD Biosciences).
# To determine the inhibitory potency of test compounds, the median fluorescent intensity (MFI) of pSTAT1 was measured in CD14+ monocytes. IC50 values were determined from analysis of the inhibition curves of MFI vs compound concentration. Data are expressed as pIC50 (negative decadic logarithm IC50) values (mean±standard deviation).
# [3] = Determination of absorption in cannulated rats; assay type: in vivo, Sprague Dawley rats; details: rat
# Method: Oral bioavailability (F %), fraction absorbed (Fa %) and fraction escaping hepatic clearance (Fh %) were determined in Sprague Dawley rats from the following two studies:
# (1) Pharmacokinetics in rats following an IV dose of test compound: Following IV dosing, plasma samples were typically collected from 0-6 hr. Drug levels were determined using an LC-MS-MS method. The resulting drug levels were used to compute the IV pharmacokinetic parameters: AUC IV and Dose IV.
# (2) Rats that have been cannulated in their portal vein (PV) and also in their jugular vein (JV) were dosed orally with test compound. Following oral dosing, plasma samples were typically collected from 0-6 hr from both the portal vein and the jugular vein. Drug levels were determined using an LC-MS-MS method. The resulting drug levels were used to compute the following pharmacokinetic parameters: AUC PO PV, AUC PO JV, and Dose PO.
# Using data derived from the above studies, the oral bioavailability F %, and the quantities Fa % and Fh % were calculated from the following formulas: F %=(AUC PO JV/AUC IV)*(Dose IV/Dose PO)*100 Fa %=(AUC PO PV/AUC IV)*(Dose IV/Dose PO)*100 Fh %=AUC PO JV/AUC PO PV
# AUC PO JV=Area under the curve following oral dose and plasma collected from the jugular vein
# AUC PO PV=Area under the curve following oral dose and plasma collected from the portal vein
# AUC IV=Area under the curve following an intravenous dose
# Dose IV=Intravenous Dose in mg/kg
# Dose PO=Oral Dose in mg/kg
smiles,measurement,setting,value
"COc1cc(Nc2cc(CO)[nH]n2)nc(N(C)[C@@H]2C[C@H]3CCC[C@@H](C2)N3S(=O)(=O)N2CC(C#N)C2)n1 [Example 2, 1-(((1R,3s,5S)-3-((4-((5-(Hydroxymethyl)-1H-pyrazol-3-yl)amino)-6-methoxypyrimidin-2-yl)(methyl)amino)-9-azabicyclo[3.3.1]nonan-9-yl)sulfonyl)azetidine-3-carbonitrile]",IC50,"[1]; HT-29, cellular assay, Assay 2, read-out: IC50 for inhibition of IL-13",≤ 50 nM
same,IC50,"[1]; IL-13 induced STAT6 phosphorylation, HT-29 cells, read-out: HT-29 (pIC50) (converted)",31.6 to 200 nM
same,IC50,"[2]; IFNγ-induced pSTAT1, CD14+ monocytes, read-out: pIC50 value (converted)",~25.1 nM
same,IC50,"[2]; cellular assay, Assay 5, read-out: IC50 for inhibition of IFNγ",≤ 50 nM
same,bioavailability,"[3]; Sprague Dawley, plasma (jugular vein), oral vs IV, read-out: oral bioavailability (F %)",< 5%
same,absorption at the portal vein (Fa %),"[3]; oral, portal vein",less than 25%
